Earlier results in patent publication US9533949B2, “Processes for the preparation of 3-alkyl indoles” (APOTEX PHARMACHEM INC., priority 2012, dated 2017).

Legend:
[1] = molecular target: T1, insulin-like growth factor-I receptor (IGF-1R) (Homo sapiens, UniProt P08069); details: allosteric inhibitor
[2] = molecular target: T1, insulin-like growth factor-I receptor (IGF-1R); details: allosteric inhibitor; remark: listed apart in the source
insulin receptor = insulin receptor (Homo sapiens, UniProt P06213)
Sequence of insulin receptor (P06213 28-1382, species assumed): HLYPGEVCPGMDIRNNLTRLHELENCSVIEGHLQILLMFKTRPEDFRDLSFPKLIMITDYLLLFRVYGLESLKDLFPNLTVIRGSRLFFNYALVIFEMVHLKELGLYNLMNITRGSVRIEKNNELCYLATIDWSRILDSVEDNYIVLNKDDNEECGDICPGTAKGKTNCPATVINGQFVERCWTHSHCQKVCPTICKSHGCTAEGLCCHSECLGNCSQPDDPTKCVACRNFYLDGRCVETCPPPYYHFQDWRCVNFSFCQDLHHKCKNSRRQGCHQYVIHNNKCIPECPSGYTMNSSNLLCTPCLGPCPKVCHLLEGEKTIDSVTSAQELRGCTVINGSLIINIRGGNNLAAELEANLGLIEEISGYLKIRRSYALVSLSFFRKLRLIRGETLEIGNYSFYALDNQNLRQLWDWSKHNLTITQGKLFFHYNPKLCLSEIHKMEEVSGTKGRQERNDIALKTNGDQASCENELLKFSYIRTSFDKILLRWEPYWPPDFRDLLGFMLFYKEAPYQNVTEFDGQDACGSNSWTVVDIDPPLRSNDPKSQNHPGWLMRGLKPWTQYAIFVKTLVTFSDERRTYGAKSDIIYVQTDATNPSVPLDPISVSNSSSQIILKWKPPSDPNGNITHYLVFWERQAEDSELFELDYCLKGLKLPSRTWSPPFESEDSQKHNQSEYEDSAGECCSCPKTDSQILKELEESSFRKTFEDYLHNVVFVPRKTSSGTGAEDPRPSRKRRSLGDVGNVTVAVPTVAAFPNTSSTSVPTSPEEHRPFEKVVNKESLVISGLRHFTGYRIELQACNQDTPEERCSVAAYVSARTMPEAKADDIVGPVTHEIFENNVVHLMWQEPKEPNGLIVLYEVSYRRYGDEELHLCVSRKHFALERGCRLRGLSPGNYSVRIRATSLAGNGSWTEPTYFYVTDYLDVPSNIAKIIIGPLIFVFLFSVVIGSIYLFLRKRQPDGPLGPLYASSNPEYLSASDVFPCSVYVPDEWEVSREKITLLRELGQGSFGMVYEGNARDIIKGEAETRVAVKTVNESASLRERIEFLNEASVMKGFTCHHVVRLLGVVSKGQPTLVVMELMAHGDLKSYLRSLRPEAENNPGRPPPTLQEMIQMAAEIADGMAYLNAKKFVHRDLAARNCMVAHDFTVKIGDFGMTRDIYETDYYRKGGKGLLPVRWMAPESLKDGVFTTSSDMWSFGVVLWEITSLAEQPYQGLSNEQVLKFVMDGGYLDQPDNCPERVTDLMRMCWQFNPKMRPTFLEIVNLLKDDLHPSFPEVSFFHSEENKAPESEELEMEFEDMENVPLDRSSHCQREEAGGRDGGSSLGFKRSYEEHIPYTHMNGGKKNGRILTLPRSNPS

D2 receptor = D2 receptor (Homo sapiens, UniProt P14416); details: selectivity to other GPCRs
Sequence of D2 receptor (P14416 whole entry): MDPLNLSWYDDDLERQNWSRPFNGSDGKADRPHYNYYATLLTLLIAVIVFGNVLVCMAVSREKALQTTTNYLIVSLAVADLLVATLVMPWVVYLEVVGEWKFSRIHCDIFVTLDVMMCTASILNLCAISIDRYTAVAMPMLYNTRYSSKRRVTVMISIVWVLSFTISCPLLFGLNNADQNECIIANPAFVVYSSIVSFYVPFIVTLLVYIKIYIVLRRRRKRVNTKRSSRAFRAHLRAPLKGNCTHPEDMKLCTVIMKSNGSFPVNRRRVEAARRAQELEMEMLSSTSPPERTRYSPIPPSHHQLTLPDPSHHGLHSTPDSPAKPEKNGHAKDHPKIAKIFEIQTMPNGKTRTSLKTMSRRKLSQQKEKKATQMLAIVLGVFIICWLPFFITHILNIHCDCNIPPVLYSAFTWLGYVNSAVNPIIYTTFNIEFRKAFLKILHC

T1 sequence (P08069 31-1367, species assumed): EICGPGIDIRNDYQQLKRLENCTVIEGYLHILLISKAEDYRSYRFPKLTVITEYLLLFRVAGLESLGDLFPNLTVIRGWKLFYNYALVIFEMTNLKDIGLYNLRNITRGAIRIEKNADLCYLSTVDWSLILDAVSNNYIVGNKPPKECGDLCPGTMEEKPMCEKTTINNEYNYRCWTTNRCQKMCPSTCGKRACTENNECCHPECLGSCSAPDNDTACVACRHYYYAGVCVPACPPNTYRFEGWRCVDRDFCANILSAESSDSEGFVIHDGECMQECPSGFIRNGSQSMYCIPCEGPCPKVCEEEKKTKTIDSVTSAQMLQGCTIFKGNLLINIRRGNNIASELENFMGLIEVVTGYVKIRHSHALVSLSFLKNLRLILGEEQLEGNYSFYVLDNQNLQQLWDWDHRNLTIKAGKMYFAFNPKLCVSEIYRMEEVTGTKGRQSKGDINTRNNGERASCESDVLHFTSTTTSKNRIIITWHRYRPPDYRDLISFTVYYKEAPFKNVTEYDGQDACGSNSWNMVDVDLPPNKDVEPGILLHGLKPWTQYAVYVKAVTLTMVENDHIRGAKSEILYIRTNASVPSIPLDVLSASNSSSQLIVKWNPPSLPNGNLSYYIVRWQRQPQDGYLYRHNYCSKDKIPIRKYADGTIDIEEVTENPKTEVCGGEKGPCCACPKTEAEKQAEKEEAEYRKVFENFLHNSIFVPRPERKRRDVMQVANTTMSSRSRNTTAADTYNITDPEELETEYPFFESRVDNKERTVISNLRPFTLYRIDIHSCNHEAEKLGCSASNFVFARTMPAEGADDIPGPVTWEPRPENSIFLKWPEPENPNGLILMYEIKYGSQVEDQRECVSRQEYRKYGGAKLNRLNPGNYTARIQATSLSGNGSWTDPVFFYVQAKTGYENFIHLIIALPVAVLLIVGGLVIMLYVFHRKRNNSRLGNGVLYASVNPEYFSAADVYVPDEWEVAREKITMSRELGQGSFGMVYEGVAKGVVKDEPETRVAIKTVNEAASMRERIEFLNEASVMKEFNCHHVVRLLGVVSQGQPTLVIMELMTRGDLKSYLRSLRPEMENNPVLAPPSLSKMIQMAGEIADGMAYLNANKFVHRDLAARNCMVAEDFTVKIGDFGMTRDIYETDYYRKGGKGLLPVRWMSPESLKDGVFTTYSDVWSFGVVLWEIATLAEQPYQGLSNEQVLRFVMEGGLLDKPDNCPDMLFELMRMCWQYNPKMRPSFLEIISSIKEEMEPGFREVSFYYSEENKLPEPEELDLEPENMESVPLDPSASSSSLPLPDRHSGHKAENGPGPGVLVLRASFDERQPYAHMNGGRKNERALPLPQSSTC

In the case of N#Cc1ccc2[nH]cc(CCCCN3CCC(NC(=O)c4cccc5c(C#N)c[nH]c45)CC3)c2c1 [compound 10, 3-Cyano-1H-indole-7-carboxylic acid {1-[4-(5-cyano-1H-indol-3-yl)butyl]piperidin-4-yl}amide], the “biochemical IGF-1R activity” value [1] is given as “nanomolar”, the “cellular IGF-1R activity” value [2] is given as “micromolar” and the “no relevant interference with cellular insulin receptor signaling up to” value (insulin receptor) is given as > 30 µM.
In the case of N#Cc1ccc2[nH]cc(CCCCN3CCN(c4ccc5oc(C(N)=O)cc5c4)CC3)c2c1 [vilazodone, 5-{4-[4-(5-Cyano-3-indolyl)butyl]-1-piperazinyl}benzofuran-2-carboxamide], the IC50 (D2 receptor) is given as 666 nM.
